Here are results for 3 molecules from ChEMBL document CHEMBL1150622, “Three new modified limonoids from Khaya senegalensis” (J Nat Prod, 2002).

Activity calls are given as the source filed them. No cut-off for these calls is given here.

The test system of data set [1] is Human immunodeficiency virus 1. Kind of data set: Antiviral activity against HIV1 in human MT4 cells assessed as inhibition of virus-induced cytopathic effect at 100 ug/mL. The data set is classed as functional, organism-based.
The next data set concerns MT4. Kind of data set: Cytotoxicity against human MT4 cells at 100 ug/mL. The data set is classed as cell-based.

`COC(=O)[C@]1(C)[C@@H]([C@@]2(C)C=CC(=O)C(C)(C)[C@@H]2CO[C@@H]2O[C@H](CO)[C@@H](O)[C@H](O)[C@H]2O)CC[C@@]2(C)[C@H](c3ccoc3)OC(=O)[C@H]3O[C@]321` [KHAYANOSIDE]: the outcome in data set [1] was inactive. For the same molecule, in the data set with MT4, the Activity entry is “Not Active”.

As for `COC(=O)C[C@H]1[C@]2(C)C[C@]3(O)[C@H]4[C@@H](O[C@]56CC(=O)O[C@@H](c7ccoc7)[C@]5(C)CC[C@H]([C@]13C)[C@]46O)[C@H]2O` [khayanolide D], in data set [1], the result was inactive. In addition, the Activity entry in the data set with MT4 is given as “Not Active”.

As for `COC(=O)[C@H](O)[C@@H]1[C@@]2(C)[C@H]3CC[C@@]4(C)[C@H](c5ccoc5)OC(=O)C[C@@]45O[C@H]4C(=O)[C@@]1(C)C[C@]2(OC(C)=O)[C@@H]4[C@@]35O` [khayanolide E], the result in data set [1] was inactive. Besides, the Activity result in the data set with MT4 is “Not Active”.
